Measured values published in patent US4298739A, “Novel carbostyril derivatives” (priority 1977, dated 1981).

Columns and labels:
[1] = target: T1, cyclic AMP phosphodiesterase (Oryctolagus cuniculus, UniProt G1ST54); test: Obstructive action against cyclic AMP phosphodiesterase; type: biochemical, rabbit; conditions: 1.0 μmol cyclic AMP, pH 8.0, 30° C., read-out: phosphodiesterase obstruction rate
T1 construct: the supernatant was collected to use it as a crude enzyme solution; from tissue; host or cells: rabbit platelets (from platelet-rich plasma), 100,000 xg supernatant, DEAE-cellulose fraction
T1 sequence (G1ST54 1-1128): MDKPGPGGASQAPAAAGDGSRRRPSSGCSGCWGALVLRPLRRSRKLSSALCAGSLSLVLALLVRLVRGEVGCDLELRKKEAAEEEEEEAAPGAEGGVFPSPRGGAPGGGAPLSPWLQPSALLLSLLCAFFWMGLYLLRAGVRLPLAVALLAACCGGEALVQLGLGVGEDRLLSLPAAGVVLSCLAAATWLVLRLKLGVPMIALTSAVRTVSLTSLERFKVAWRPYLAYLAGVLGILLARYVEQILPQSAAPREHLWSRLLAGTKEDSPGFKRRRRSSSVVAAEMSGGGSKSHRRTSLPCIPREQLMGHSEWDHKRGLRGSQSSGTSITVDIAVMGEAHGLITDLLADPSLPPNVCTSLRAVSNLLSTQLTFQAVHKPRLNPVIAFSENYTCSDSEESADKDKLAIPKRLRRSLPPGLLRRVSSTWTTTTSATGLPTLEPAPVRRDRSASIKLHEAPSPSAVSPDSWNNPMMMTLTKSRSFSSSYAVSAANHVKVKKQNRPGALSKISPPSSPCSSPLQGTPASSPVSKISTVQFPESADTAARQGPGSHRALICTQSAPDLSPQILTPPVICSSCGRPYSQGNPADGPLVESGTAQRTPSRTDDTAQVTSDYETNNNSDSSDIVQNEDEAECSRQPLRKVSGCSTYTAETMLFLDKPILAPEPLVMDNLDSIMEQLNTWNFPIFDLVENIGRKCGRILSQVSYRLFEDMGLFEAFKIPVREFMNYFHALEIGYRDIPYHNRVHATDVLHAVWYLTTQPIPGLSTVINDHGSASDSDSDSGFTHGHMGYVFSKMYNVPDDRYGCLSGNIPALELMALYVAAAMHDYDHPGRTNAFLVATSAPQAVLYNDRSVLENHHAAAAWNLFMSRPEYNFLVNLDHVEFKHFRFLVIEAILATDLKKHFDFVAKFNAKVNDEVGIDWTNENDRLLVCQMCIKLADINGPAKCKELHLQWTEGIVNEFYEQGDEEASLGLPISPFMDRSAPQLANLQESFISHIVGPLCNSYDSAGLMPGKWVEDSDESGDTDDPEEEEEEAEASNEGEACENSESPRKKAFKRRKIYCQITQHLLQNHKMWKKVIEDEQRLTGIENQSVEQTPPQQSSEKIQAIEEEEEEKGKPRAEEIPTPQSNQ
Method: The obstructive action against cyclic AMP phosphodiesterase was measured according to the activity measuring method described in "Biochimica et Biophysica Acta", Vol. 429, pp. 485-497 (1976) and "Biochemical Medicine", Vol. 10, pp. 301-311 (1974).
That is, for determining the obstructive activity against cyclic AMP phosphodiesterase, 10 ml of a solution obtained by adding 1 mmol of MgCl2 into 50 mmol of tris-hydrochloric acid buffer with pH 7.4 was added to the platelets obtained by further centrifuging the abovesaid rabbit PRP at 3,000 r.p.m. for 10 minutes, and the suspended platelets were ground by a Teflon potter type homogenizer. This was followed by two times of freezing and thawing treatment and 300-second fracturing with 200 watt supersonic waves. After additional 60-minute centrifugation with 100,000 xg, the supernatant was collected to use it as a crude enzyme solution.
10 Milliliters of this crude buffer solution was added to a 1.5×20 cm DEAE-cellulose column which has previously been buffered with 50 mmol of tris-acetate buffer (pH 6.0), followed by washing and elution with 30 ml of 50 mmol tris-acetate buffer, and this buffer solution was subjected to linear gradient elution with 0 to 0.5 moles of sodium acetate-tris-acetatebuffer. The flow rate was 0.5 ml/min, and 5 ml of each fraction was batched out. […] This fraction was used as cyclic AMP phosphodiesterase.
0.1 Milliliter of an aqueous solution of each test compound of a specified concentration was mixed with 40 mmol of tris-hydrochloric acid buffer (pH 8.0, containing 50 μg of cow serum albumin and 4 mmol of MgCl2) containing predetermined 1.0 μmol of cyclic AMP (tritium cyclic AMP), and 0.2 ml of this mixed solution was used as substrate solution.
0.2 Milliliter of the above-prepared cyclic AMP phosphodiesterase of a predetermined concentration was added to said substrate solution and the mixture was reaction at 30° C. for 20 minutes, producing tritium 5'-AMP from the tritium cyclic AMP.
The reaction system was then immersed in boiling water for 2 minutes to stop the reaction, and then this reaction solution was cooled in ice water and, for converting the produced tritium 5'-AMP into tritium adenosine, the solution was added with 0.05 ml (1 mg/ml) of snake poison as 5'-nucleotidase and reacted at 30° C. for 10 minutes. The whole amount of this reaction solution was then added to a cation exchange resin (AG 500 W×4, 200-400 meshes, manufactured by Bio-Rad Co., column size: 0.5×1.5 cm), and the produced tritium anodesine alone was allowed to combine, washed with 6 ml of distilled water and eluted with 1.5 ml of 3 N-ammonia water. The whole quantity of the elutant was added with 10 ml of a triton-toluene type scintillator and the produced tritium adenosine was measured by a liquid scintillation counter to determine the phosphodiesterase activity.
In this way, the phosphodiesterase activation value (Vs) of the test compounds of the respective concentrations was determined, and the phosphodiesterase obstruction rate (%) was determined from said activation value (Vs) and control value (Vc) (obtained from water not containing any test compound) from the following formula: [formula]

rabbit platelet [2] = test: Collagen-induced aggregation in rabbit platelets (AG-II Aggregometer); type: cell-based
Outline: (§1)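 Rabbit citrated PRP, diluted with PPP to 300,000/mm^3 platelets for ADP or 450,000/mm^3 for collagen, was preincubated with compound 1 min at 37° C. before inducer was added. ADP at 7.5×10^-5 M or collagen supernatant in Auren Beronal buffer pH 7.35; transmittance change recorded, percent inhibition derived.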

rabbit platelet [3] = test: ADP-induced aggregation in rabbit platelets (AG-II Aggregometer); type: cell-based
Outline: as §1

Male mice = test: Acute toxicity test, oral administration to mice; type: in vivo
Method: The test compounds were administered orally to the mice and LD50 (mg/kg) of the compounds was determined.

inhibition at 100 µM ([1]; 10^-4 mole) | inhibition at 10 µM ([1]; 10^-5 mole) | inhibition at 1 µM ([1]; 10^-6 mole) | inhibition at 0.1 µM ([1]; 10^-7 mole) | Structure (SMILES) | Inhibition effect on collagen induced aggregation in rabbit platelet (rabbit platelet [2]; 10^-4 mole) | Inhibition effect on collagen induced aggregation in rabbit platelet (rabbit platelet [2]; 10^-5 mole) | Inhibition effect on ADP-induced aggregation in rabbit platelet (rabbit platelet [3]; 10^-4 mole) | Inhibition effect on ADP-induced aggregation in rabbit platelet (rabbit platelet [3]; 10^-5 mole) | LD50 (Male mice)
98.5% | 85.7% | 67.4% | 3.2% | CC(C)Cn1c(=O)n(C)c(=O)c2[nH]cnc21 [1-Methyl-3-isobutylxanthine, 1-methyl-3-isobutylxanthine, reference compound] | – | – | – | – | –
– | – | – | – | O=C1CCc2cc(OCCCC(=O)Nc3c(Cl)cccc3Cl)ccc2N1 [compound 21, 6-[3-(o,o-Dichloroanilinocarbonyl)propoxy]-3,4-dihydrocarbonstyril] | 95.1% | 27.6% | 36.8% | 5.3% | > 1000 mg
